Data from ChEMBL document CHEMBL3045332, “Synthesis of some new 2,6-disubstituted-3(2H)-pyridazinone derivatives and investigation of their analgesic, anti-inflammatory and antimicrobial activities” (Med Chem Res, 2013).
In brackets after ≈: the same amount, converted by molar mass.

How the values were obtained:
Mus musculus [1] = test: Analgesic activity in Swiss albino Mus musculus (mouse) assessed as inhibition of p-benzoquinone-induced writhing at 100 mg/kg, po administered 60 min prior to p-benzoquinone-challenge measured up to 15 min relative to control; type: functional
Escherichia coli [2] = test: Antibacterial activity against Escherichia coli clinical isolate expressing extended spectrum beta-lactamase after 24 hr by two-fold serial dilution method; type: functional
Escherichia coli [3] = test: Antibacterial activity against Escherichia coli ATCC 25922 after 24 hr by two-fold serial dilution method; type: functional; conditions: ATCC 25922, 24 h
Enterococcus faecalis [4] = test: Antibacterial activity against Enterococcus faecalis clinical isolate after 24 hr by two-fold serial dilution method; type: functional
Mus musculus [5] = test: Anti-inflammatory activity in Swiss albino Mus musculus (mouse) assessed as inhibition of carrageenan-induced paw edema at 100 mg/kg, po administered 60 min prior to crrageenan-challenge measured at 270 min relative to control; type: functional
Enterococcus faecalis [6] = test: Antibacterial activity against Enterococcus faecalis ATCC 29212 after 24 hr by two-fold serial dilution method; type: functional; conditions: ATCC 29212, 24 h
Pseudomonas aeruginosa [7] = test: Antibacterial activity against Pseudomonas aeruginosa ATCC 27853 after 24 hr by two-fold serial dilution method; type: functional; conditions: ATCC 27853, 24 h
Mus musculus [8] = test: Ulcerogenic activity in p-benzoquinone-challenged Swiss albino Mus musculus (mouse) at 100 mg/kg, po administered 60 min prior to p-benzoquinone-challenge by microscopic analysis; type: toxicity, organism-based; design: dose 100 mg/kg, route oral; conditions: in vivo, 1 h
Mus musculus [9] = test: Anti-inflammatory activity in Swiss albino Mus musculus (mouse) assessed as inhibition of carrageenan-induced paw edema at 100 mg/kg, po administered 60 min prior to crrageenan-challenge measured at 90 min relative to control; type: functional
Staphylococcus aureus [10] = test: Antibacterial activity against Staphylococcus aureus ATCC 29213 after 24 hr by two-fold serial dilution method; type: functional; conditions: ATCC 29213, 24 h
Candida albicans = test: Antifungal activity against Candida albicans ATCC 10231 after 48 hr by two-fold serial dilution method; type: functional; conditions: ATCC 10231, 48 h
Pseudomonas aeruginosa [11] = test: Antibacterial activity against Pseudomonas aeruginosa cloinical isolate after 24 hr by two-fold serial dilution method; type: functional
Pichia kudriavzevii = test: Antifungal activity against Pichia kudriavzevii ATCC 6258 after 48 hr by two-fold serial dilution method; type: functional; conditions: ATCC 6258, 48 h
Mus musculus [12] = test: Anti-inflammatory activity in Swiss albino Mus musculus (mouse) assessed as inhibition of carrageenan-induced paw edema at 100 mg/kg, po administered 60 min prior to crrageenan-challenge measured at 180 min relative to control; type: functional
Mus musculus [13] = test: Anti-inflammatory activity in Swiss albino Mus musculus (mouse) assessed as inhibition of carrageenan-induced paw edema at 100 mg/kg, po administered 60 min prior to crrageenan-challenge measured at 360 min relative to control; type: functional
Staphylococcus aureus [14] = test: Antibacterial activity against methicillin-resistant Staphylococcus aureus clinical isolate after 24 hr by two-fold serial dilution method; type: functional

| SMILES | inhibition in vivo at 100 mg/kg (Mus musculus [1]) | MIC (Escherichia coli [2]) | MIC (Escherichia coli [3]) | MIC (Enterococcus faecalis [4]) | inhibition in vivo at 100 mg/kg (Mus musculus [5]) | MIC (Enterococcus faecalis [6]) | MIC (Pseudomonas aeruginosa [7]) | Activity (Mus musculus [8]) | inhibition in vivo at 100 mg/kg (Mus musculus [9]) | MIC (Staphylococcus aureus [10]) | MIC (Candida albicans) | MIC (Pseudomonas aeruginosa [11]) | MIC (Pichia kudriavzevii) | inhibition in vivo at 100 mg/kg (Mus musculus [12]) | inhibition in vivo at 100 mg/kg (Mus musculus [13]) | MIC (Staphylococcus aureus [14]) |
| --- | --- | --- | --- | --- | --- | --- | --- | --- | --- | --- | --- | --- | --- | --- | --- | --- |
| O=c1ccc(-c2ccccc2)nn1CCN1CCN(c2ccc(Cl)cc2)CC1 | 23.3% | 64 µg/mL (≈ 162 µM) | 64 µg/mL (≈ 162 µM) | 64 µg/mL (≈ 162 µM) | 14.8% | 64 µg/mL (≈ 162 µM) | 64 µg/mL (≈ 162 µM) | Non-toxic | 16.2% | 64 µg/mL (≈ 162 µM) | 32 µg/mL (≈ 81 µM) | 64 µg/mL (≈ 162 µM) | 32 µg/mL (≈ 81 µM) | 14.9% | 12.1% | 128 µg/mL (≈ 324 µM) |
| O=c1ccc(-c2ccccc2)nn1CCN1CCN(c2ccc(F)cc2)CC1 | 16.8% | 64 µg/mL (≈ 169 µM) | 64 µg/mL (≈ 169 µM) | 64 µg/mL (≈ 169 µM) | 29.9% | 64 µg/mL (≈ 169 µM) | 64 µg/mL (≈ 169 µM) | Non-toxic | 10.6% | 64 µg/mL (≈ 169 µM) | 32 µg/mL (≈ 84.6 µM) | 64 µg/mL (≈ 169 µM) | 32 µg/mL (≈ 84.6 µM) | 26.3% | 19.5% | 128 µg/mL (≈ 338 µM) |
| O=c1ccc(-c2ccc(Cl)cc2)nn1CCN1CCN(c2ccccc2)CC1 | 20.1% | 64 µg/mL (≈ 162 µM) | 64 µg/mL (≈ 162 µM) | 64 µg/mL (≈ 162 µM) | 7.4% | 64 µg/mL (≈ 162 µM) | 64 µg/mL (≈ 162 µM) | Non-toxic |  | 64 µg/mL (≈ 162 µM) | 32 µg/mL (≈ 81 µM) | 64 µg/mL (≈ 162 µM) | 32 µg/mL (≈ 81 µM) | 1.4% |  | 128 µg/mL (≈ 324 µM) |
| COc1ccc(-c2ccc(=O)n(CCN3CCN(c4ccc(OC)cc4)CC3)n2)cc1 | 5.6% | 64 µg/mL (≈ 152 µM) | 64 µg/mL (≈ 152 µM) | 64 µg/mL (≈ 152 µM) | 13.6% | 64 µg/mL (≈ 152 µM) | 64 µg/mL (≈ 152 µM) | Non-toxic |  | 64 µg/mL (≈ 152 µM) | 32 µg/mL (≈ 76.1 µM) | 64 µg/mL (≈ 152 µM) | 32 µg/mL (≈ 76.1 µM) |  | 7.9% | 128 µg/mL (≈ 304 µM) |
| OC(Cn1cncn1)(Cn1cncn1)c1ccc(F)cc1F [FLUCONAZOLE] |  |  |  |  |  |  |  |  |  |  | 1 µg/mL (≈ 3.27 µM) |  | 64 µg/mL (≈ 209 µM) |  |  |  |
| C[C@@H]1[C@H](O)[C@@H](C)/C=C/C=C/C=C/C=C/C=C/C=C/C=C/[C@H](O[C@@H]2O[C@H](C)[C@@H](O)[C@H](N)[C@@H]2O)C[C@@H]2O[C@](O)(C[C@@H](O)C[C@@H](O)[C@H](O)CC[C@@H](O)C[C@@H](O)CC(=O)O[C@H]1C)C[C@H](O)[C@H]2C(=O)O [AMPHOTERICIN B] |  |  |  |  |  |  |  |  |  |  | < 0.25 µg/mL |  | 0.5 µg/mL (≈ 0.541 µM) |  |  |  |
| CC(=O)Oc1ccccc1C(=O)O [ASPIRIN] | 45.9% |  |  |  |  |  |  | Toxic |  |  |  |  |  |  |  |  |
| O=c1ccc(-c2ccc(Cl)cc2)nn1CCN1CCN(c2ccc(Cl)cc2)CC1 | 53.2% | 64 µg/mL (≈ 149 µM) | 64 µg/mL (≈ 149 µM) | 64 µg/mL (≈ 149 µM) | 31% | 64 µg/mL (≈ 149 µM) | 64 µg/mL (≈ 149 µM) | Non-toxic | 20.6% | 64 µg/mL (≈ 149 µM) | 32 µg/mL (≈ 74.5 µM) | 64 µg/mL (≈ 149 µM) | 32 µg/mL (≈ 74.5 µM) | 29.7% | 28.2% | 128 µg/mL (≈ 298 µM) |
| COc1ccc(N2CCN(CCn3nc(-c4ccc(Cl)cc4)ccc3=O)CC2)cc1 | 30.2% | 64 µg/mL (≈ 151 µM) | 64 µg/mL (≈ 151 µM) | 64 µg/mL (≈ 151 µM) | 18.5% | 64 µg/mL (≈ 151 µM) | 64 µg/mL (≈ 151 µM) | Non-toxic | 4.7% | 64 µg/mL (≈ 151 µM) | 32 µg/mL (≈ 75.3 µM) | 64 µg/mL (≈ 151 µM) | 32 µg/mL (≈ 75.3 µM) | 12.3% | 15.5% | 128 µg/mL (≈ 301 µM) |
